Results as given in PubChem BioAssay AID602210 (Sanford-Burnham Center for Chemical Genomics, 2012).
pIC50: −log10 of the molar value. Active and inactive are the calls of the source. No rule for the calls is given here.

Assay: H9c2 cardiomyoblast viability modulators under 2-DG – cell-based, ATPlite luminescence, rat, set 2, myocardial damage modulator project, dose response (AID 602210)
Settings: H9c2 rat cardiomyoblasts, 2-deoxyglucose-induced death, 2 h

Compound	pIC50	IC50
CC(=O)Nc1ccc(S(=O)(=O)N(Cc2ccco2)Cc2cc3ccccc3[nH]c2=O)cc1	5.05	–
COc1cccc(/C=N/NC(=O)c2ccncc2)c1OC(=O)c1ccc(Br)cc1	–	28.3 µM (inactive)
CC(=O)NCCNc1nc2c(-c3ccccc3)nnn2c2ccccc12	–	13.2 µM (inactive)
COc1cccc(Nc2nc(-c3sc(NC(=O)c4ccco4)nc3C)cs2)c1	5.04	–
CC(C)(C)OC(=O)C[C@@H]1C/C=C\C[C@@H](CC(=O)N[C@H](CO)Cc2ccccc2)C(=O)NC[C@@H](c2ccccc2)OC1=O	–	64 µM (inactive)
COc1cccc(/C=N/Nc2nc3ccccc3n3cnnc23)c1	5.46	–
COc1ccc(C(=O)COC(=O)Cn2[nH]c(=O)c3ccccc3c2=O)c(OC)c1	–	52.7 µM (inactive)
Cc1ccc(C)c(C(=O)Nc2cc(C)nn2-c2nc(C)cc(C)n2)c1	–	30.1 µM (inactive)
COc1cc(-c2cc(NC(C)=O)c3ncc(-c4ccc(F)cc4)n3c2)cc(OC)c1OC	5.06	–
Cc1cccc(NC(=O)c2nc[nH]c2C(=O)NCCCNC(=O)c2[nH]cnc2C(=O)Nc2cccc(C)c2)c1	–	> 79 µM (inactive)
COc1ccc(N/C=C(\C#N)c2nc3ccccc3n2C)c(OC)c1	–	> 79 µM (inactive)
O=C1NC(Cc2ccc(O)cc2)c2nc3ccc(F)cc3c(=O)n2-c2cc3ccccc3cc21 (stereo not drawn)	–	11.1 µM (inactive)
NC(=O)c1nsc(C(=O)N(CCc2ccccc2)C(C(=O)NC2CCCC2)c2ccco2)c1N (stereo not drawn)	–	25.8 µM (inactive)
COC(=O)c1cc2c(C)c(C)c3ccccn3c-2c1C(=O)OC	5.14	–
COc1ccc(-n2c(/C=C/c3ccc(O)c(OC)c3)nc3ccccc3c2=O)cc1	5.09	–
O=C/C(=C\Nc1ccccn1)c1nc2cc(Cl)ccc2o1	–	> 79 µM (inactive)
CCOc1ccc2[nH]c(=O)c(CN(Cc3nnnn3Cc3ccco3)C3CCCCC3)cc2c1	5.04	–
CC(=O)Nc1ccc(NS(=O)(=O)c2cc(-c3n[nH]c(=O)c4ccccc34)ccc2C)cc1	–	44 µM (inactive)
Cc1ccc(CN(C(=O)CNC(=O)c2cccs2)C(C(=O)NCC2CCCO2)c2ccccc2)cc1 (stereo not drawn)	–	19.1 µM (inactive)
CCOC(=O)C1=C(C)Nc2ccccc2N=C1NC(=O)c1oc2ccccc2c1COC	5.16	–
COc1ccc(-c2cc(NC(C)=O)c3ncc(-c4cccc(C(C)=O)c4)n3c2)cc1OC	5.09	–
CC(C)(C)NC(=O)c1cccc(NC(=O)c2ccc(NC(=O)c3ccco3)cc2)c1	–	18.9 µM (inactive)

Compound	pIC50	IC50
CCN(CC)c1ccc(C2C(C(=O)OC(C)C)C(=O)CC(C)(O)C2C(=O)OC(C)C)cc1 (stereo not drawn)	–	20.5 µM (inactive)
O=C1c2ccccc2C(=O)N1CCCCSc1nc2ccccc2c(=O)n1CCCN1CCOCC1	–	> 79 µM (inactive)
Cc1cc(C)cc(OCC(=O)Nc2cccc(-c3nc4ncccc4o3)c2)c1	–	14.3 µM (inactive)
Cc1ncc(CO)c2cc(C(=O)Nc3ccccc3Cl)c(=Nc3cccc(C(N)=O)c3)oc12	5.61	–
COC(=O)c1ccc(C(=O)OC)c(NC(=O)COC(=O)C23CC4CC(CC(O)(C4)C2)C3)c1	–	10.5 µM (inactive)
N#C/C(=C\c1cn(-c2ccccc2)nc1-c1cccnc1)c1nnc2n1CCCCC2	–	30.2 µM (inactive)
Cc1ncc(CO)c2c1Oc1nc(-c3ccccc3)nc(SCC(=O)N3CCCCC3)c1C2	–	> 79 µM (inactive)
COc1ccc(Nc2nc(C(=O)N3CCc4cc(OC)c(OC)cc4C3)cs2)cc1	–	14.2 µM (inactive)
CCOC(=O)N1CCN(C(=O)CSc2nc3ccccc3c(=O)n2-c2ccccc2)CC1	–	34.5 µM (inactive)
COc1cc(OC)cc(C(=O)Nc2ccc(-c3nc4ccccc4o3)cc2)c1	–	13.7 µM (inactive)
CC(=O)N1CCN(c2ccccc2NC(=O)c2ccc(-c3cccc([N+](=O)[O-])c3)o2)CC1	5.16	–
COc1cc2[nH]c(=O)n3nc(-c4ccccc4)nc3c2cc1OC	–	12.1 µM (inactive)
c1ccc(-c2nc(-n3ccnc3)nc(-n3ccnc3)n2)cc1	5.04	–
O=C(NCC(=O)N(Cc1cccs1)C(C(=O)NC1CCCCC1)c1ccco1)c1cccs1 (stereo not drawn)	–	17 µM (inactive)
O=C(c1ccc(-c2nc3ccccc3s2)o1)N1CCN(c2ccccc2O)CC1	–	13.2 µM (inactive)
CC/C(C)=N\N=C\c1c(O)n(CC)c2cc(C3=NNC(=O)CC3)ccc12	–	> 79 µM (inactive)
COc1cccc(C(=O)Nc2c(C(N)=O)oc3ccccc23)c1	–	15.1 µM (inactive)
Cc1ccc(C)c(NC(=O)C(Sc2nc3ccccc3c(=O)n2CC(C)C)c2ccccc2)c1 (stereo not drawn)	6.47	–
O=C(C[C@@H]1C/C=C/CC[C@@H](Cc2ccc(F)cc2)C(=O)O[C@@H](c2ccccc2)CNC1=O)NCCO	–	27.5 µM (inactive)
COc1ccc(C(C(=O)NC2CCCC2)N(C(=O)c2snc(C(N)=O)c2N)c2cccc(O)c2)cc1 (stereo not drawn)	–	13.3 µM (inactive)
COc1ccc(COc2cc(-c3cccc(OC)c3)nc3ccc(NC(=O)c4ccc(OC)cc4)cc23)cc1	5.38	–
O=C(CNC(=O)c1nc[nH]c1C(=O)NCC(=O)OCc1ccccc1)OCc1ccccc1	6.02	–

Compound	pIC50	IC50
CC(=O)Nc1ccc(-c2csc(NC(=O)Nc3ccccc3)n2)cc1	5.71	–
COc1ccc(-c2cnc3c(NC=O)cc(-c4cccc(NS(C)(=O)=O)c4)cn23)cc1OC	–	13.4 µM (inactive)
COc1ccc(OC)c(Nc2nc(N)c([N+](=O)[O-])c(N3CCOCC3)n2)c1	–	27.5 µM (inactive)
COc1ccc(C(=O)Nc2cccc(/C(C)=N/NC(=O)c3ccc([N+](=O)[O-])c(C)c3)c2)cc1OC	–	18.7 µM (inactive)
Cc1nc(NC(=O)c2cc3c(C)nn(-c4ccccc4)c3s2)sc1C(=O)Nc1ccccc1	–	> 79 µM (inactive)
O=C(NC1CCCCC1)C(c1ccc2ncccc2c1)N(Cc1ccccc1)C(=O)c1ccc2c(c1)OCCO2 (stereo not drawn)	–	29.4 µM (inactive)
COc1cc(NC(=O)c2c(OC)cccc2OC)ccc1NC(=O)c1cc2ccccc2o1	–	13.4 µM (inactive)
OC1CCN(c2c3c(nc4cc(-c5cccc(F)c5)nn24)CCCC3)CC1	–	23.8 µM (inactive)
CCOC(=O)c1cc2c(=O)n3cccc(C)c3nc2n(CCCOC)c1=NC(=O)c1cccnc1	–	11.3 µM (inactive)
COc1ccc(OC)c(NC(=O)COC(=O)c2c3c(nc4ccccc24)CCCC3)c1	5.11	–
COc1ccc(-c2cc(NC(C)=O)c3ncc(-c4ccc(OC)c(OC)c4)n3c2)cc1OC	–	14.8 µM (inactive)
CC1CN(c2nn3c(=O)c4ccccc4nc3c3ccccc23)CC(C)O1 (stereo not drawn)	–	> 79 µM (inactive)
COc1cccc(Nc2nc3ccccc3n3nnnc23)c1	–	> 79 µM (inactive)
C[C@H](CO)N1C[C@H](C)[C@@H](CN(C)C(=O)Nc2ccc3c(c2)OCO3)Oc2c(NC(=O)Nc3ccc(C(F)(F)F)cc3)cccc2C1=O	–	> 79 µM (inactive)
COc1ccc(-n2cc(-c3ccccc3)c3c(N4CCOCC4)ncnc32)cc1	5.22	–
O=CNc1cc(-c2ccc(C(=O)NC3CC3)cc2)cn2c(-c3ccc(F)c(Cl)c3)cnc12	–	17.2 µM (inactive)
C[C@@H]1CN([C@H](C)CO)S(=O)(=O)c2ccc(C#Cc3ccccc3F)cc2O[C@H]1CN(C)C(=O)c1ccc2c(c1)OCO2	5.08	–
CCOC(=O)C1=C(C)N=c2s/c(=C\c3ccncc3)c(=O)n2C1c1ccc2c(c1)OCO2 (stereo not drawn)	–	30.3 µM (inactive)
CC(=O)Nc1cc(-c2ccc(C(=O)N3CCOCC3)cc2)cn2c(-c3ccc(C(C)=O)cc3)cnc12	–	27.1 µM (inactive)
Cn1c(C(=O)NCCc2ccsc2)cc2c(=O)n(C)c3ccccc3c21	–	11.3 µM (inactive)
C=C1C(C)C2C(Cc3ccccc3)NC(=O)C23OC(=O)/C=C/C(O)CCCC(C)C/C=C/C3C1O (stereo not drawn)	6.02	–
CCOC(=O)C1CCN(c2cc3c(cc2NC(=O)c2ccccc2Cl)n(C)c(=O)n3C)CC1	–	15.2 µM (inactive)

Compound	pIC50	IC50
COc1ccc(NC(=O)c2oc3ccc(S(=O)(=O)N4CCOCC4)cc3c2C)cc1	–	15.3 µM (inactive)
O=C(N/N=C/c1ccccn1)c1ccc(NC(=O)c2cccc([N+](=O)[O-])c2)cc1	–	> 79 µM (inactive)
Cc1cc(NC(=O)C2CCCCC2)nc2c1c(=O)oc1ccccc12	–	26.8 µM (inactive)
Cc1cccc(NC(=O)c2cc(-c3ccco3)nc3ccccc23)n1	–	12.2 µM (inactive)
Cc1[nH]c2ccccc2c1/C=N/NC(=O)c1cc(-c2cccs2)[nH]n1	5.24	–
O=C(NCCc1c[nH]c2ccccc12)C(=O)NCC(c1ccco1)N1CCN(c2ccccc2F)CC1 (stereo not drawn)	–	> 79 µM (inactive)
CCOc1ccc(C(C(=O)NC2CCCC2)N(C(=O)c2snc(C(N)=O)c2N)c2cccc(O)c2)cc1 (stereo not drawn)	5.17	–
CCOc1ncccc1C(=O)Nc1cccc(-c2nc3cccnc3s2)c1	5.15	–
CC(=O)Nc1cccc(NC(=O)c2cc(-c3cccnc3)nc3ccc(Br)cc23)c1	–	> 79 µM (inactive)
COc1ccc(CCn2c(=N)c(C(=O)NCC3CCCO3)cc3c(=O)n4cccc(C)c4nc32)cc1OC (stereo not drawn)	–	> 79 µM (inactive)
COc1cccc(-c2cnc3c(NC=O)cc(-c4cccc(C(=O)N(C)C)c4)cn23)c1	–	> 79 µM (inactive)
COc1ccc(-c2csc(NC(=O)c3cccc(N4C(=O)CCC4=O)c3)n2)cc1OC	–	13.1 µM (inactive)
Cn1c(=O)c2[nH]c(NN=Cc3cccc(Br)c3)nc2n(C)c1=O	5.13	–
C[C@@H](NC(=O)c1nc[nH]c1C(=O)NCC(=O)OCc1ccccc1)c1ccccc1	5.00	–
Cc1ccc(C(=O)Nc2cccc(C(F)(F)F)c2)cc1NC(=O)c1csc(-c2ccncc2)n1	–	> 79 µM (inactive)
C=CCn1cnc2c(c1=O)c1nc3ccccc3nc1n2/N=C/c1cc(OC)c(OC)c(OC)c1	5.58	–
C[C@H]1Cn2cnc(C(=O)N[C@@H](Cc3c[nH]c4ccccc34)C(=O)OC(C)(C)C)c2C(=O)N1	–	24.7 µM (inactive)
O=S(=O)(c1ccccc1)N1CCN(c2nc(-c3cccnc3)nc3ccccc23)CC1	–	12 µM (inactive)
C[C@H](NC(=O)c1nc[nH]c1C(=O)NCC(=O)OCc1ccccc1)C(=O)OCc1ccccc1	5.55	–
COC(=O)c1cccc(S(=O)(=O)N(Cc2ccco2)Cc2cc3cc(OC)ccc3[nH]c2=O)c1	–	11.6 µM (inactive)
COc1cc(/C=N/n2nnnc2Nc2ccccc2)cc(OC)c1OC	–	38.1 µM (inactive)
CC(=O)Nc1cc(-c2cccc(NS(C)(=O)=O)c2)cn2c(-c3cccc(C(C)=O)c3)cnc12	–	16.2 µM (inactive)
